ChEMBL document CHEMBL3639081, “Azabicyclo compound and salt thereof” (2014)

Target: Heat shock protein HSP 90-alpha (Homo sapiens, UniProt P07900)
Assay: AlphaScreen Competitive Assay: The HSP90-binding activity was measured by an AlphaScreen competitive assay system. The purified HSP90 solution was diluted with a binding buffer (50 mM Tris-HCl (pH 7.5), 150 mM NaCl, 0.1% Triton-X100, 1 mM DTT, 0.1% BSA) and added to a 384-well plate (No. 3673, Corning Incorporated) containing test substances. After reaction at room temperature for 2 hr, biotin-labeled geldanamycin was added to each reaction solution in an amount of 40 nM, followed by reaction for further 1 hr. Detection mix (20 mM HEPES-KOH (pH 7.5), 0.5% BSA, 0.04 mg/mL Nickel Chelate Acceptor beads, 0.04 mg/mL Streptavidin-coated Donor beads) (No. 6760619C, Perkin Elmer, Inc.) was added to each well in the same amount as that of the reaction solution. After reaction in a dark place at room temperature for 1 hr, the fluorescence intensity in each well was measured with a multilabel plate reader, EnVision (Perkin Elmer, Inc.).

IC50: 0.09 µM
Compound: COc1cc(C(N)=O)ccc1-n1nc(C(C)C)c2c(-n3cnc(-c4cnn(C)c4)c3)ccnc21
